Laboratory results taken from patent publication US20100210722A1, “COMPOSITION FOR PREVENTING OR TREATING LIPID METABOLIC DISORDERS COMPRISING FUCOXANTHIN OR MARINE PLANT EXTRACT CONTAINING SAME” (AMICOGEN, INC., priority 2007, published 2010).
Marks after values point to notes of the source that are not given here.

How the values were obtained:
Type in all cases: in vivo, C57BL/6N/CriBgi mice
[1] = test system: glucose-6-phosphate dehydrogenase (G6PD); assay: G6PD activity in adipose tissue; conditions: high fat diet, 6 weeks
Excerpt: (§1) Test diets were as follows: “normal diet group”=AIN-76 semisynthetic diet of Teklad (Madison, Wl, USA); “high fat diet group”=normal diet+10% of corn oil and 10% of lard; “test group I”=high fat diet+fucoxanthin extract of Example 1 (fucoxanthin content=0.05%); “test group II”=high fat diet+fucoxanthin extract of Example 1 (fucoxanthin content=0.2%); “test group III”=high fat diet+fucoxanthin extract of Example 2 (fucoxanthin content=0.05%); “test group IV”=high fat diet+fucoxanthin extract of Example 2 (fucoxanthin content=0.2%). The 6 diets (normal diet, high fat diet, and test I, II, III and IV) were given to the animals for 6 weeks. Diet intake was recorded every day, and body weight was measured once a week.
The supernatant was centrifuged again at 12,000×g for 15 minutes. Then, the supernatant was subjected to high-speed centrifuging (Beckman, Optima TLX-120, USA) at 100,000×g for 1 hour. Then, change of the activity of enzymes involved in the synthesis of fatty acid—fatty acid synthase (FAS), glucose-6-phosphate dehydrogenase (G6PD) and malic enzyme (ME)—was measured.
The G6PD enzyme is an enzyme that supplied reducing energy required for the synthesis of fatty acid. […] G6PD activity was measured at 340 nm by the degree of reduction of NADP^+ to NADPH by G6PD. […] G6PD activity was calculated as nmol of NADPH produced per 1 mg of protein in cell per minute.

[2] = Amount of feces and cholesterol content in feces; conditions: high fat diet, 6 weeks
Description: (§2) Seventy (70) 4-week-old male C57BL/6N/CriBgi mice weighing 14 g were purchased from Orient, and reared in separate cages maintained at 24° C. and relative humidity of 55%, providing light from 08:00 until 20:00. The mice were accustomed while providing a pellet type diet for a week. The mice, which weighed 18.5-18.7 g, were grouped into seven groups by the randomized block design. Each group was given a different diet, as follows.
as §1
Feces were taken from the mice fed with the test diets for 6 weeks of Reference Example 1. The amount of feces and cholesterol content in the feces were measured.

[3] = test system: peroxisome proliferator-activated receptor α (PPARα) mRNA; assay: Expression of mRNA for PPARα in liver tissue (real-time PCR)
[4] = Body weight of mice fed high fat diet with fucoxanthin extract or highly pure fucoxanthin; conditions: high fat diet; for Body weight, Week 0: Week 0 (baseline); for Body weight, Week 0 / Body weight, Week 1 / Body weight, Week 2: in g (unit assumed)
Description: as §2, §1
During the 6-week test period, body weight was measured every week. Significance of differences of means of the groups was evaluated by one-way analysis of variance (ANOVA) technique. Duncan's multiple range test was employed for post-evaluation of the groups, with P<0.05.

FAS mRNA = assay: Expression of mRNA for FAS in adipose tissue (real-time PCR); conditions: normal diet = 1.00, GAPDH internal marker
Excerpt: as §1
5 mL of Trizol was added to 0.5 g of white adipose tissue. After pulverizing in liquid nitrogen using a mortar, the tissue was added to 1 mL of chloroform. […] The isolated RNA was diluted and absorbance was measured at 260 nm using a UV spectrometer. […]
Thus prepared cDNA was […] 10-fold, and primers for analyzing the expression of the respective genes (CPT, β-oxidation, FAS, ME and G6PD) were obtained from Genotech (Daejeon, Korea). […] Fluorescence signals were monitored for each cycle and threshold cycle (Cr) was analyzed for quantitative analysis of mRNA for the test groups (Applied Biosystems, SDS7000) (Livak, 2001). […]

ME mRNA = assay: Expression of mRNA for ME in liver tissue (real-time PCR)
[5] = fucoxanthin content 0.05% (Test I/III)
[6] = fucoxanthin content 0.2% (Test II/IV)
[7] = normal diet = 1.00, fucoxanthin content 0.05% (Test I/III)
[8] = normal diet = 1.00, fucoxanthin content 0.2% (Test II/IV)

For `CC(=O)O[C@H]1CC(C)(C)C(=C=C/C(C)=C/C=C/C(C)=C/C=C/C=C(C)/C=C/C=C(\C)C(=O)C[C@@]23O[C@]2(C)C[C@@H](O)CC3(C)C)[C@](C)(O)C1` [highly pure fucoxanthin, Fucoxanthin], the G6PD activity [1, 5] was 1.25 ± 0.27^a mmol/min/mg protein, the G6PD activity [1, 6] was 1.27 ± 0.15^a mmol/min/mg protein and the Amount of feces [2, 5] was 0.226 ± 0.01^c g/day. The “Cholesterol content in feces” value [2, 5] was 237.88 ± 10.39^c umol/g, the Amount of feces [2, 6] was 0.209 ± 0.01^bc g/day and the “Cholesterol content in feces” value [2, 6] was 508.79 ± 13.25^c umol/g. The “Expression of mRNA, PPARα” value [3, 7] was 1.22 ± 0.08^ab, the “Expression of mRNA, PPARα” value [3, 8] was 1.57 ± 0.36^b and the “Body weight, Week 0” value [4, 5] was 18.56 ± 0.3. For the same compound, the “Body weight, Week 1” value [4, 5] was 20.19 ± 0.2, the “Body weight, Week 2” value [4, 5] was 21.79 ± 0.3 and the “Body weight, Week 3” value [4, 5] was 22.70 ± 0.2^b. For the same compound, the “Body weight, Week 4” value [4, 5] was 24.39 ± 0.3^b, the “Body weight, Week 5” value [4, 5] was 26.46 ± 0.3^b and the “Body weight, Week 6” value [4, 5] was 27.80 ± 0.3^b. For the same compound, the “Body weight, Week 0” value [4, 6] was 18.58 ± 0.3, the “Body weight, Week 1” value [4, 6] was 20.19 ± 0.3 and the “Body weight, Week 2” value [4, 6] was 22.30 ± 0.3. The “Body weight, Week 3” value [4, 6] was 22.96 ± 0.4^ab, the “Body weight, Week 4” value [4, 6] was 25.17 ± 0.5^ab and the “Body weight, Week 5” value [4, 6] was 26.39 ± 0.6^b. The “Body weight, Week 6” value [4, 6] was 27.37 ± 0.7^bc, the “Expression of mRNA, FAS” value (FAS mRNA; [5]) was 0.51 ± 0.03^abc and the “Expression of mRNA, FAS” value (FAS mRNA; [6]) was 0.28 ± 0.05^a. For the same compound, the “Expression of mRNA, ME” value (ME mRNA; [7]) was 0.84 ± 0.08^bc and the “Expression of mRNA, ME” value (ME mRNA; [8]) was 0.53 ± 0.03^a.
